Assay type in all cases: cell-based
For assay [1], the target named is T1, TRPA1 (Homo sapiens, UniProt O75762).
T1 construct: Human TRPA1 (NM_007332) expressed in HEK293T cells
The assay can be described thus: whole-cell and excised-patch (inside-out/outside-out) patch clamp, calcium imaging. For orientation: Patch clamp records ionic current or voltage across a cell membrane.

Assay [2] addresses T2, TRPA1 (Homo sapiens, UniProt O75762, C641A).
T2 construct: hTRPA1 mutant expressed in HEK293 cells
In words: whole-cell patch clamp dose-response.

The target of assay [3] is T1, TRPA1. In words: excised-patch single-channel recording and calcium imaging, […].

T1 sequence (O75762 whole entry): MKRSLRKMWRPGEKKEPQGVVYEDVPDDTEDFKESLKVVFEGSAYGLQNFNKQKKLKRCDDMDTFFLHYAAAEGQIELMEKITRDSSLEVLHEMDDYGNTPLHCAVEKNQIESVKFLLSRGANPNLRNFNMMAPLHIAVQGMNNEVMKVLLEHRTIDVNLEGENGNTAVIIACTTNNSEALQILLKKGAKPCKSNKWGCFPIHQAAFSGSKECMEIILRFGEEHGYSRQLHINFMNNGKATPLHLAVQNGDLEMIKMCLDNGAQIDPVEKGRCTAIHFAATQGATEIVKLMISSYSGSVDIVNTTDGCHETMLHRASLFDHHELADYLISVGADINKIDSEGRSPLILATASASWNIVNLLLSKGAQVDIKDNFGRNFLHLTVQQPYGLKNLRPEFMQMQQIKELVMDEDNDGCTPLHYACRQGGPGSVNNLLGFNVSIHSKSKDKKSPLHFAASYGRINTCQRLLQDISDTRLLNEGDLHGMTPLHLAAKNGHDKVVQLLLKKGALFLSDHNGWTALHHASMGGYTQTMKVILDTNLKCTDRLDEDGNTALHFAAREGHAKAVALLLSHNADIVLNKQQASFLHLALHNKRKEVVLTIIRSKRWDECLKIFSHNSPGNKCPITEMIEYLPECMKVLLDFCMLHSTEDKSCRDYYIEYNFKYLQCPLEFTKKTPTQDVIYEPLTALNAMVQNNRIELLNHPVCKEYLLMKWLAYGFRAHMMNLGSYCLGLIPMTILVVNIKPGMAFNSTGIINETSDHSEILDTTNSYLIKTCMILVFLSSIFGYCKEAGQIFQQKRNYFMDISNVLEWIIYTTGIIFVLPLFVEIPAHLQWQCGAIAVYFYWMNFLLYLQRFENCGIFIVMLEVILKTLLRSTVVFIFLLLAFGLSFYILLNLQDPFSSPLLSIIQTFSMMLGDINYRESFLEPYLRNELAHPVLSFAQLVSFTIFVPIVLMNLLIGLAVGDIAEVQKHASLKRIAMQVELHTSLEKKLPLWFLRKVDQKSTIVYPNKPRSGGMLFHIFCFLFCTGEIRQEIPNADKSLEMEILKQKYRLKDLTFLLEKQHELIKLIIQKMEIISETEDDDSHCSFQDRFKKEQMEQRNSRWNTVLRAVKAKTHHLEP
T2 sequence (O75762 whole entry C641A): as the sequence (O75762 whole entry) above, with C641A counted along it

What is called EC50 is the concentration giving half of the maximal effect. On to `CCCCCCCCCC(=O)CC(O)S(=O)(=O)O` (stereo not drawn) [SH, sodium houttuyfonate], for which the concentration giving a half-maximal response (EC50) was 343 ± 12.5 µM at TRPA1 [1] and 432 ± 9.72 µM on TRPA1 [2]. Consider `C=CCN=C=S` [AITC, allyl isothiocyanate], for which, on TRPA1 [3], the “excised-patch single-channel recording and calcium imaging, 1 mM” value is on record as “consistently observed in both configurations, mirroring the effects of AITC, a membrane-permeable TRPA1 agonist”.

For the origin of these results see PMC12770358, “Molecular defense strategy of volatile organic compound-emitting plants (order Piperales) against herbivorous mammals” (Communications Biology, 2025).
